Test results published in patent publication US7833795B2, “Assessment of cardiovascular risk using isoprostane biomarkers and COX-2 selective inhibitors” (The Trustees of the University of Pennsylvania, priority 2004, dated 2010).

What was measured:
Format in all cases: in vivo, rat
Male Fisher 344 rats [1] = assay: Plasma lipid hydroperoxides (iodometric assay) after CCl4
Method: (§1) Animals and treatment protocol: Male Fisher 344 rats (260-280 g) obtained from Charles River Laboratories (Raleigh, N.C.) were used in all experiments. The animals were housed three to a cage. Autoclaved hardwood bedding was used in solid-bottom polycarbonate cages with filter tops. Animal rooms were maintained at 20-25° C. with 35-70% relative humidity with alternating 12-hour light and dark cycles. The rats had free access to deionized, reverse-osmosis-treated water and received autoclaved NIH 31 rodent chow (Zeigler Bros., Gardners, Pa.) ad libitum. For all experiments, rats were fasted overnight and then administered intraperitoneal injections of carbon tetrachloride in canola oil. Control rats received an equal volume of canola oil. Fasting continued throughout the experiment. Rats were anesthetized with Nembutal (0.1 ml/100 g body weight) and 5 ml blood was removed from the dorsal aorta proximal to its bifurcation into the common iliac arteries.
(§2) Carbon tetrachloride (CCL4) treatment: Animals from each of the three dose groups (Control-canola oil, 120 mg/kg CCl4 i.p. and 1200 mg/kg CCl4 i.p.) were investigated at three time points (2, 7, and 16 hours after CCl4 injection). Indomethacin-pretreated rats were also investigated at the same three time points, and the meclofenamic acid-pretreated rats were investigated at one time point (7 hours). Each group consisted of five rats for each analysis, except the meclofenamic acid pretreatment group which consisted of six rats. Animal treatment, sample preparation, assessment of liver histology and serum enzyme activities are described elsewhere (Kadiiska et al., 2000, Free Radic. Biol. Med. 28: 838-845; Jackson, 1989, J. Pharmacol. Exp. Ther. 250: 9-21) and were carried out at NIEHS, Research Triangle Park, N.C.
(§3) Plasma sample preparation: Blood (5 ml) was drawn through single draw Vacutainer® needles (21 Gauge) into open Vacutainer® blood collection tubes containing heparin. The tubes were gently inverted 2-3 times for mixing and immediately placed on ice. Blood was centrifuged (2,000 rpm for 10 minutes at 4° C.) no more than 30 minutes after collection, and the plasma was collected, frozen on dry ice and stored at −70° C.
The second assay of plasma lipid hydroperoxides used iodometric spectrophotometric determination. Concentrations of lipid hydroperoxides were measured according to a slightly modified procedure of Cramer et al. (1991, Anal. Biochem. 193: 204-211) where plasma was treated to enzymatically hydrolyze lipids, and nonesterified fatty acid peroxides were then extracted with ethyl acetate. Extracted lipids were reacted with potassium iodide in citric acid and methylene chloride, and the resulting triiodide ion (I3^−) was measured spectrophotometrically. All measurements were done at the United States Environmental Protection Agency (EPA), Research Triangle Park, N.C.

Male Fisher 344 rats [2] = assay: Plasma MDA, TBA colorimetric assay with 3rd derivative spectroscopy; conditions: plasma
Method: as §1, §2, §3
Two colorimetric-based assays, using third derivative spectroscopy, were also used to measure MDA in plasma. The TBA colorimetric assay is designed to measure free MDA and MDA-protein adducts (Schiff base), and therefore includes mild acid hydrolysis. The Bioxytech® LPO-586™ colorimetric assay is based upon the reaction of the chromogenic reagent N-methyl-2-phenylindole (NMPI) with MDA at 45° C. One molecule of free MDA combines with 2 molecules of the chromogenic agent to produce a stable chromophore with a maximal absorbance at 586 nm. In both assays, the concentration of MDA was determined with 3rd derivative spectroscopy. Both assays were developed by OXIS Research Inc., Portland, Oreg., and were performed at OXIS and at Loyola University Medical Center, Maywood, Ill.

Male Fisher 344 rats [3] = assay: Urinary 8,12-iso-iPF2α-VI by LC/MS/MS; conditions: for 8,12-iso-iPF2a-VI (by LC/MS/MS): urine
Method: as §1
Indomethacin pretreatment: The indomethacin regimen used has been previously shown to inhibit COX activity in rats by 90% (dose of 5 mg/kg s.c. 24 hours, 12 hours, and 2 hours prior to the injection of CCl4) (Jackson, 1989, J. Pharmacol. Exp. Ther. 250: 9-21). An additional booster dose was injected 8 hours after the last injection of CCl4 for the measurements performed 16 hours after treatment with CCl4.
Meclofenamic acid pretreatment: Meclofenamic acid was injected at a dose of 5 mg/kg i.p. 12 h and 2 h prior to the injection of CCl4.
as §2
Urine sample preparation: The day prior to treatment, both experimental and control animals were placed in stainless steel metabolic cages especially designed for urine collection. For Experimental Example 2, animals were placed in metabolic cages immediately after the last injection of indomethacin or meclofenamic acid. Urine was collected (in dark vials) from the animals during the following intervals: 2 to 7 hours and 7 to 16 hours after CCl4 or canola oil (controls) treatment. Urine samples from indomethacin-pretreated rats were collected from 2 to 7 hours and 7 to 16 hours after the injection of CCl4, whereas samples from meclofenamic-acid-pretreated rats were collected only from 2 to 7 hours after the injection. All urine samples were immediately frozen on dry ice and stored at −70° C.
Analysis of 8,12-iso-iPF2α-VI, which is, along with its epimer 5-epi-8,12-iso-iPF2α-VI, the most prevalent PGF-ring isoprostane in human urine, was accomplished by addition of a tetradeuterated analog, solid phase extraction and quantitation using liquid chromatography and tandem mass spectroscopy (LC/MS/MS) (Li et al., 1999, Proc. Natl. Acad. Sci. USA 96: 13381-13386). The measurements were performed at the University of Pennsylvania, Philadelphia, Pa.

Male Fisher 344 rats [4] = assay: Plasma protein-bound 3-nitrotyrosine (HPLC-EC)
Method: as §1, §2, §3
Determination of tyrosine products employed a method of sample preparation wherein tyrosine analogs were enzymatically hydrolyzed from protein without the need for sample extraction, concentration or derivatization (Henley et al., 1997, Analytical Biochem. 251: 187-195). High performance liquid chromatography was applied in conjunction with coulometric electrochemical array (HPLC-EC) detection to allow ultrasensitive determination of protein-bound 3-nitrotyrosine and 3,4-dihydroxyphenylalanine (3-hydroxytyrosine) as specific in situ biomarkers of protein exposure to reactive nitrating or oxidizing species (Henley et al., 1997, Analytical Biochem. 251: 187-195). Tyrosine and derivatives were analyzed simultaneously, with practical detection limits for tyrosine, 3-nitrotyrosine, and 3,4-Dopa being 10, 50 and 2 pmol respectively, in as little as 20 μL of sample. The measurements were conducted at the Oklahoma Medical Research Foundation (OMRF), Oklahoma City, Okla.

In the case of ClC(Cl)(Cl)Cl [CCl4, Carbon tetrachloride], the “LOOH (iodometric assay)” value (Male Fisher 344 rats [1]; CCl4 120 mg/kg i.p., 2 h) was 0.30 µM, the “LOOH (iodometric assay)” value (Male Fisher 344 rats [1]; CCl4 120 mg/kg i.p., 7 h) was 0.30 µM and the “LOOH (iodometric assay)” value (Male Fisher 344 rats [1]; CCl4 120 mg/kg i.p., 16 h) was 0.56 µM. The “LOOH (iodometric assay)” value (Male Fisher 344 rats [1]; CCl4 1200 mg/kg i.p., 2 h) was 1.42 µM, the “LOOH (iodometric assay)” value (Male Fisher 344 rats [1]; CCl4 1200 mg/kg i.p., 7 h) was 0.40 µM and the “LOOH (iodometric assay)” value (Male Fisher 344 rats [1]; CCl4 1200 mg/kg i.p., 16 h) was 0.39 µM. For the same compound, the “plasma MDA” value (Male Fisher 344 rats [2]; CCl4 120 mg/kg i.p., 2 h) was 0.268 µM, the “plasma MDA” value (Male Fisher 344 rats [2]; CCl4 120 mg/kg i.p., 7 h) was 0.209 µM and the “plasma MDA” value (Male Fisher 344 rats [2]; CCl4 120 mg/kg i.p., 16 h) was 0.214 µM. The “plasma MDA” value (Male Fisher 344 rats [2]; CCl4 1200 mg/kg i.p., 2 h) was 0.686 µM, the “plasma MDA” value (Male Fisher 344 rats [2]; CCl4 1200 mg/kg i.p., 7 h) was 0.274 µM and the “plasma MDA” value (Male Fisher 344 rats [2]; CCl4 1200 mg/kg i.p., 16 h) was 0.156 µM. For the same compound, the “8,12-iso-iPF2a-VI (by LC/MS/MS)” value (Male Fisher 344 rats [3]; CCl4 120 mg/kg i.p., 7 h) was 36.8 ng/mL, the “8,12-iso-iPF2a-VI (by LC/MS/MS)” value (Male Fisher 344 rats [3]; CCl4 120 mg/kg i.p., 16 h) was 32.4 ng/mL and the “8,12-iso-iPF2a-VI (by LC/MS/MS)” value (Male Fisher 344 rats [3]; CCl4 1200 mg/kg i.p., 7 h) was 84.3 ng/mL. For the same compound, the “8,12-iso-iPF2a-VI (by LC/MS/MS)” value (Male Fisher 344 rats [3]; CCl4 1200 mg/kg i.p., 16 h) was 78.5 ng/mL, the “increase of urinary 8,12-iso-iPF2α-VI” value (Male Fisher 344 rats [3]; high dose CCl4, 7 h) was 17 fold and the “increase of urinary 8,12-iso-iPF2α-VI” value (Male Fisher 344 rats [3]; high dose CCl4, 16 h) was 7 fold. The “3-Nitrotyrosine, bound” value (Male Fisher 344 rats [4]; CCl4 120 mg/kg i.p., 2 h) was 0.24 µM, the “3-Nitrotyrosine, bound” value (Male Fisher 344 rats [4]; CCl4 120 mg/kg i.p., 7 h) was 0.39 µM and the “3-Nitrotyrosine, bound” value (Male Fisher 344 rats [4]; CCl4 120 mg/kg i.p., 16 h) was 0.43 µM. The “3-Nitrotyrosine, bound” value (Male Fisher 344 rats [4]; CCl4 1200 mg/kg i.p., 2 h) was 0.26 µM, the “3-Nitrotyrosine, bound” value (Male Fisher 344 rats [4]; CCl4 1200 mg/kg i.p., 7 h) was 0.42 µM and the “3-Nitrotyrosine, bound” value (Male Fisher 344 rats [4]; CCl4 1200 mg/kg i.p., 16 h) was 0.38 µM.
